Assay results reported in patent US20100278855A1, “NEUROPROTECTIVE GANODERMA COMPOSITIONS AND METHODS OF USE” (priority 2009, published 2010).

Tests used:
[1] = test system: TNF-α mRNA; experiment: Real-time PCR of TNF-α mRNA in primary microglial cells; format: cell-based, rat; details: stimulus alone vs control cells
From the text: (§1) Total RNA was extracted from primary microglial cells using RNAprep Kit according to the manufacturer's specifications. RNA was primed with random 9 mers and converted into cDNA by reverse transcription (RT) using AMV reverse transcriptase by following the manufacturer's recommended protocol (Schell, J. B. et al., 2007, J. Neuroimmunol., 189:75-87; Liu, B. et al., 2000, J. Pharmacol. Exp. Ther., 293:607-617). The resulting cDNA was then subjected to real-time PCR with SYBR Premix Ex Taq containing a final concentrations of 1×SYBR Green (Molecular Probes) and 0.2 μM of the primer set of interest in a […] reaction. The PCR mixture was run in the DNA engine Opticon 2 (MJ research; Waltham, Mass.). After an initial 10-second 95° C. denaturation step, the reaction was run through 35 cycles at 95° C. for 5 s, 60° C. for 30 s, and 80° C. for 1 s. Melting curve analysis was executed to ensure the resulting products from the reaction had equivalent and appropriate melting temperatures. The specific primers used are listed in Table 1 (Schell, J. B. et al., 2007, J. Neuroimmunol., 189:75-87). The quantification of target transcripts was based on a calibration curve. The “housekeeping” gene β-actin was targeted for an internal control gene. The test gene data were normalized by corresponding β-actin data.

[2] = test system: IL-1β; experiment: IL-1β ELISA in microglia culture medium; format: cell-based, rat; details: stimulus alone: LPS 0.25 μg/ml or MPP+-treated cell membrane fraction 150 μg/ml
Experimental: (§2) Microglia were isolated and purified from brains of 12-24 hours old Wistar rats supplied by Laboratory Animal Center (Le, W. D. et al., 2001, J. Neurosci., 21:8447-8455). Briefly, after brains were dissected and the meninges removed, the tissues were minced and digested with trypsin (0.25% trypsin-EDTA in 0.1M phosphate buffer) for 20 minutes at 37° C., triturated with a fire-polished Pasteur pipette and filtered through a […] nylon cell strainer. After centrifugation for 5 minutes at 800 rpm, the tissues were suspended into DMEM containing 10% fetal bovine serum (FBS), and seeded in 75 cm^2 flasks at a density of 5×10^5/ml cells per flask.
(§3) Two weeks after the seeding, the flasks were shaken at 180 rpm for 4 hours, and the floating cells were collected and centrifuged for 5 minutes at 800 rpm. The cells were resuspended and plated to 96-well plates for further experimental treatment.
(§4) To study the interaction of reactive microglia with MES 23.5 cells, microglia and MES 23.5 cells were co-cultured in 24-well culture plates. Briefly, the purified microglia were plated at a density of 1×10^4/well 1 day before addition of MES 23.5 cells at a ratio of 2:1 (MES 23.5 to microglia). […]
(§5) Samples were prepared similar to NO samples and the production of these factors were determined using rat TNF-α kit, rat IL-1β ELISA kit and superoxide Assay Kit-WST according to the manufacturer's instructions. […]

[3] = test system: MES 23.5 and microglia co-cultures; experiment: High-affinity [3H] dopamine uptake assay, MES 23.5 and microglia co-cultures; format: cell-based, rat; details: no Ganoderma
From the text: (§6) The dopaminergic cell line MES 23.5 was a gift from professor Wei-dong Le, Department of Neurology, Baylor College of Medicine, Houston. The MES 23.5 cells were derived from somatic cell fusion of rat embryonic mesencephalic cells with murine N18TG2 neuroblastoma cells (Crawford, G. D. et al., 1992, J. Neurosci., 12:3392-3398). MES 23.5 cells display many properties of developing neurons of the SN zona compacta and offer several advantages for such initial studies, including greater homogeneity than primary cultures and susceptibility to both free-radical-mediated cytotoxicity and calcium-dependent cell death. […]
(§7) Cells in each well were washed with 1 ml of Krebs-Ringer buffer (16 mM NaH2PO4, 16 mM Na2HPO4, 119 mM NaCl, 4.7 mM KCl, 1.8 mM CaCl2, 1.2 mM MgSO4, 1.3 mM EDTA, and 5.6 mM glucose; pH 7.4). […] After mixing the lysate with 3 ml of scintillation fluid overnight, radioactivity was determined with Perkin Elmer 1450LSC Luminescence Counter (Waltham, USA.). Specific uptake was determined by subtracting the nonspecific counts for the total activity.
(§8) To assess inflammation mediated neurotoxicy, dopaminergic MES23.5 neurons were exposed to 100 μM MPP^+ or 0.25 μg/ml LPS in the absence or presence of microglia co-culture for 24 hr, and neurotoxicity was assessed using [3H] […]

[4] = test system: superoxide; experiment: Superoxide assay (Assay Kit-WST) in microglia cultures; format: cell-based, rat; details: stimulus alone: LPS 0.25 μg/ml or MPP+-treated cell membrane fraction 150 μg/ml
Experimental: as §2, §3, §4, §5

[5] = test system: TNF-α; experiment: TNF-α ELISA in microglia culture medium; format: cell-based, rat; details: stimulus alone: LPS 0.25 μg/ml or MPP+-treated cell membrane fraction 150 μg/ml
Experimental: as §2, §3, §4, §5

[6] = test system: nitric oxide (NO); experiment: NO assay (Griess reagent) in microglia culture medium; format: cell-based, rat; details: stimulus alone: LPS 0.25 μg/ml or MPP+-treated cell membrane fraction 150 μg/ml
Experimental: as §2
Two weeks after the seeding, the flasks were shaken at 180 rpm for 4 hours, and the floating cells were collected and centrifuged for 5 minutes at 800 rpm. The cells were resuspended and plated to 96-well plates for further experimental treatment. […]
The production of NO was quantified by measuring the released NO metabolites (nitrates and nitrites) with Griess reagent (Mayer, A. M., 1998, Medicina (B Aires), 58:377-385). […] The medium was incubated with the same volume of Griess reagent at room temperature for 10 minutes before measuring absorbance at 540 nm in a LP-400 ELISA reader (Diagnostics Pasteur, Marne-la-Coquette, France) with appropriate standards. […]

[7] = test system: IL-1β mRNA; experiment: Real-time PCR of IL-1β mRNA in primary microglial cells; format: cell-based, rat; details: stimulus alone vs control cells
From the text: as §1

[8] = test system: MES 23.5 cells; experiment: High-affinity [3H] dopamine uptake assay, MES 23.5 neurons alone; format: cell-based, rat/murine; details: 100 μM MPP+ 24 hr, MES23.5 neurons alone, no Ganoderma
From the text: as §6, §7, §8

Compound	TNF-α mRNA expression [1]	increase of IL-1β level [2]	reduction of [3H] DA uptake ([3]; 0.25 LPS 24 hr, neuron-microglia co-cultures)	increase of superoxide level [4]	increase of TNF-α level [5]	increase of NO level [6]	IL-1β mRNA expression [7]	decrease in [3H] DA uptake ([3]; 100 μM MPP+ 24 hr, MES23.5 and microglia co-cultures)	decrease in [3H] DA uptake [8]
lipopolysaccharide [LPS]	significantly increased	6-11 fold	approximately 50%	5-11 fold	6-11 fold	5-11 fold	significantly increased		
C[n+]1ccc(-c2ccccc2)cc1 [MPP^+]								about 74%	about 66%
